Assay results taken from ChEMBL document CHEMBL1134717 (Bioorg Med Chem Lett, 2001).

Legend:
[1] = biological target: Kappa-type opioid receptor (Cavia porcellus, UniProt P41144); assay: Binding affinity towards guinea pig Opioid receptor kappa 1 using radioligand [3H]U-69593
Mu-type opioid receptor = Mu-type opioid receptor (Cavia porcellus, UniProt P97266); assay: Binding affinity towards Opioid receptor mu 1 of guinea pig brain membranes using radioligand 0.25 nM [3H]DAMGO
Sequence of Mu-type opioid receptor (P97266 whole entry): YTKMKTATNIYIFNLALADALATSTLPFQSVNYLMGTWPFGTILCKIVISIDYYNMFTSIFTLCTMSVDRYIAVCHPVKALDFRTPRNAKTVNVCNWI

Sequence of Kappa-type opioid receptor (P41144 whole entry): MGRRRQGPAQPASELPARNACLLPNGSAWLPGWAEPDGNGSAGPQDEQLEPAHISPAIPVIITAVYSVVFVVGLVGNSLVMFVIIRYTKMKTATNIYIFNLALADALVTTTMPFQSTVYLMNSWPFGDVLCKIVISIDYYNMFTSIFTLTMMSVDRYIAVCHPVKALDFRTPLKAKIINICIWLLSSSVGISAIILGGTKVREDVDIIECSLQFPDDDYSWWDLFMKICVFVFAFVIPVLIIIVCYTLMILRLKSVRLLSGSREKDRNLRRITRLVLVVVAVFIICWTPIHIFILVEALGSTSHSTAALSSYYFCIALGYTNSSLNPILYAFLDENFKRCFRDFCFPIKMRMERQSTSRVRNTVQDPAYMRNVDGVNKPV

SMILES | Ki [1] [nM] | Ki (Mu-type opioid receptor) [nM]
CNC(=O)c1ccc2c3c1OC1C(O)C=C[C@H]4[C@@H](C2)N(C)CC[C@]314 (stereo partly drawn) | > 10000 | 440
NC(=O)c1ccc2c3c1O[C@H]1C(=O)CC[C@@]4(O)[C@@H](C2)N(CC2CC2)CC[C@]314 | 22 | 1.9
CN(C)C(=O)c1ccc2c3c1OC1C(O)C=C[C@H]4[C@@H](C2)N(C)CC[C@]314 (stereo partly drawn) | > 10000 | 
CN1CC[C@]23c4c5ccc(C(N)=O)c4OC2C(O)C=C[C@H]3[C@H]1C5 (stereo partly drawn) | 2000 | 34
C[C@H]1[C@H]2Cc3ccc(O)cc3[C@]1(C)CCN2CC1CC1 [CYCLAZOCINE] | 0.18 | 
